Source: patent US8962018B2, “Oral formulation of anhydrous olanzapine form I” (Laboratorios Lesvi, S.L., priority 2005, dated 2015)

What was measured:
Format in all cases: physicochemical
[1] = X-ray diffraction study of polymorphic form after direct compression; conditions: after direct compression into tablets
[2] = Stability of olanzapine Form I product under ambient storage conditions
Procedure: Said method includes in vacuo drying of the solvate at a pressure ranging between 1 and 40 mmHg, preferably between 1 and 20 mmHg, and a temperature controlled between 10 and 50° C., preferably between 20 and 40° C. Said method provides olanzapine Form I in a simple manner, with a high yield of the end product (olanzapine Form I) and with high chemical purity (level of total impurities less than 0.3% as determined by HPLC), together with a high polymorphic purity (Form II<2%).

[3] = Effect of aqueous medium used for the coating on stability of the solid form; conditions: aqueous medium used for preparation of the coating

SMILES: Cc1cc2c(s1)Nc1ccccc1N=C2N1CCN(C)CC1 [olanzapine Form I, Olanzapine]
- Polymorphic form stability (formation of Form II) [1]: remains stable without any formation of detectable amounts of the polymorph Form II being observed
- Stability and colour variations [2]: remains stable and does not undergo colour variations
- Related substances and polymorphic form after aqueous coating [3]: no increase of related substances nor change in the polymorphic form
